Assay [1] has as its system Staphylococcus aureus ATCC43300. The assay is described as follows: Resistance test of bacteria against compounds (serial induction, 21 days). The class given is cell-based. To be noted: start of resistance test, S. aureus ATCC43300. The method, then: This example provides a resistance test of bacteria against compounds, and the specific experimental method is as follows.
1. […] It was ensured that among the 6 final concentrations of the drug diluted into the wells, some were higher than the original MIC of the bacteria and some were lower than the original MIC of the bacteria.
2. Preparation of bacterial liquid: 10 mL of culture medium was taken and added to a sterilized plate using a pipette, then 100 µL of the above-mentioned passaged bacterial liquid was added, and mixed well for later use.
3. The above-mentioned diluted bacterial liquid was taken and added to a 96-well plate using a pipette, 180 μL per well, 3 wells per group, 6 groups in total. 20 μL of drug solution was added to each well (note: it is necessary to replace the pipette tip each time the drug is added), so that the final drug concentrations were […], respectively. The well with 200 μL of diluted bacterial liquid was used as the positive control well, and the well with 200 μL of culture medium was used as the negative control well.
The test object was Staphylococcus aureus (S. aureus).

The subject of assay [2] is human acute monocytic leukemia cell THP-1. The assay is described as follows: In vitro anticancer activity test (MTT cell proliferation). The class given is cell-based. The method, then:
(§1) The anticancer activity of the compounds was tested using an in vitro cancer cell tests. The specific test method is as follows:
(§2) 1. Cell recovery and culture method: the cryovial was taken out from the liquid nitrogen container firstly, soaked directly in 37° C. warm water, and shaked from time to time to let it thaw as soon as possible. Then, the cryovial was transferred to a clean bench, and the lid was open. The cell suspension was taken into a centrifuge tube using a rubber-tipped dropper and more than 10 times the culture medium was added, mixed well, and centrifuged at 50 g for 5 minutes. Then, the supernatant was discarded, complete culture medium containing 10% fetal bovine serum was added to resuspend the cells, the cells was counted, the cell density was adjusted, and then inoculated into a culture bottle. The culture bottle was placed in a cell culture incubator at 5% CO2 and 37° C. The complete culture medium was replaced once the next day and the culture was continued.
(§3) 2. Cell passaging method: adherent cells in the logarithmic growth phase were placed in a clean bench, the original culture medium was discarded, and washed three times with 1×PBS. An appropriate amount of 0.25% trypsin digestion solution was added to moisten the cells, and then the trypsin solution was aspirated. The cells were placed in a cell culture incubator at 5% CO2 and 37° C. for digestion for a suitable time, and observed under a microscope. When 90% of the cells become round, the cells were moved immediately to the clean bench and complete culture medium was added to terminate digestion. Then, the cells were dislodged by pipetting up and down with a rubber-tipped dropper to single cells. The cells were counted, and the cell density was adjusted. The cells were inoculated into a suitable culture bottle or dish, added enough complete culture medium, and placed in a cell culture incubator at 5% CO2 and 37° C. for static culture.
(§4) For suspension cells in the logarithmic phase, the original culture medium was directly centrifuged at 50 g for 5 minutes, the supernatant was discarded, and the cells were washed once with PBS and centrifuged. After discarding the supernatant, the complete culture medium was added and the cells were dispersed using a rubber-tipped dropper. The cells are counted, and the cell density was adjusted. The cells were inoculated into appropriate culture bottles or culture dishes, and sufficient complete culture medium was added, and the cells were cultured in a cell culture incubator at 5% CO2 and 37° C.
(§5) 3. Cell proliferation assay: cells in good state in logarithmic phase were taken and appropriate amount of the cells was inoculated into 96-well plates according to the cell passage treatment method, with each well containing 180 μL complete medium. After the cells growth was recovered and the number of cells in each well is 5000±500, a drug was added for treatment.
(§6) After drug treatment during the experimental time, MTT solution with a final concentration of 0.5 mg/mL was added to each well, and placed in a cell culture incubator at 5% CO2 and 37° C. to allow a fully reaction of MTT with cells. After 4 hours, the solution in the 96-well plate was discarded, 100 µL of DMSO was added, and shaked to dissolve the formazan precipitated at the bottom of the plate, and the absorbance value of samples was detected at a wavelength of 570 nm using a microplate reader. Calculation method of cell viability rate: […]

Assay [3] concerns human acute myeloid leukemia cell MOLM-13. Described as above. It counts as cell-based. The method, then:
as §1, §2, §3, §4, §5, §6

Assay [4] concerns human liver cancer cell BLE-7402. The description is as above. The class given is cell-based. How it is done: as §1, §2, §3, §4, §5, §6
Assay [5] concerns human renal cancer cell OS-RC-2. The assay is described as above. The class given is cell-based. How it is done:
as §1, §2, §3, §4, §5, §6

Assay [6] has as its system human bladder transitional cell carcinoma cell T24. The assay is described as above. It counts as cell-based. Conditions: T-24. How it is done: as §1, §2, §3, §4
The test system of assay [7] is human epidermal carcinoma cell A431. The assay is described as above. It counts as cell-based. To be noted: A-431. How it is done:
as §1, §2, §3, §4

In assay [8] the test system is Staphylococcus aureus ATCC43300. As to the kind of experiment: Systemic blood infection animal model. The class given is in vivo, mice. To be noted: for number of colonies of liver and kidney: 3 times a day, 7 days. How it is done: (2) Sterile phosphate buffered saline (PBS) was used to prepare a 1×10^7 CFU/mL Staphylococcus aureus ATCC43300 bacterial suspension for later use; the drug dosage required for mice was calculated for each group, and solutions of Example 34 and solvent for gavage (400 or 200 μL of Tween 80 was mixed with Example 34, grinded with an agate mortar until it became transparent, and then 0.5% sodium carboxymethyl cellulose solution was added to reach the required concentration and volume of the test drug) were prepared for later use.
(3) Except for the blank group, 100 μL of the bacterial suspension prepared in step 2 was injected into the tail vein of each mouse.
(4) 2 hours after the challenge, the drugs prepared in step 2 were administered by oral gavage according to the groups, 3 times a day, 200 uL each time, with an interval of 8 hours, for a total of 7 days. Mice were administered by oral gavage with the drug solvent for the model group and the blank group.
(5) 8 h after the last administration, mice were euthanized by cervical dislocation, disinfected with 75% alcohol, and then necropsied under sterile conditions. The kidneys and livers were harvested, observed and photographed, and the weight was recorded.
(6) The kidneys and livers were placed in a sterile glass grinder and sterile PBS in a volume ten times the weight of the organs was added and grinded. The grinding solutions were taken out, 10-fold serially diluted, smeared to a TSA solid culture medium, and incubated at 37° C. for 16 hours, then the colonies were counted. The number of colonies of the organs was calculated to evaluate the therapeutic effect.

For assay [9], the system named is human Burkitt's lymphoma cell Raji. The assay is described as follows: In vitro anticancer activity test (MTT cell proliferation). It counts as cell-based. The method, then:
as §1, §2, §3, §4, §5, §6

Turning to `O=C(O)c1cn(C2CC2)c2c(Cl)c(-c3ccc(S(=O)(=O)NCCCC(F)(F)F)nc3)c(F)cc2c1=O` [Example 34, 8-chloro-1-cyclopropyl-6-fluoro-4-oxo-7-(6-(N-(4,4,4-trifluorobutyl)sulfamoyl)pyridin-3-yl)-1,4-dihydroquinolin-3-carboxylic acid], the “initial MIC compared with marketed drugs” value in [1] is “superior to the marketed drugs ciprofloxacin and vancomycin”. The IC50 in assay [2], in assay [3], in assay [4], in [5], in assay [6] and in assay [7] was 1 to 10 µM in each case. Besides, the figures for the “number of colonies of liver and kidney” value in [8] (1 mg/kg oral gavage) and in [8] (4 mg/kg oral gavage) were “significant statistical difference from the control group” and “good antibacterial effect”, respectively. Besides, the “antibacterial effect in the liver and kidney (number of colonies of organs)” value in [8] (compared with the positive drug ciprofloxacin) is “very significant antibacterial effect”.
For `Cc1c(-c2cnc(N)nc2)c(F)cc2c(=O)c(C(=O)O)cn(C3CC3)c12` [compound 1, reference compound], in [9], the IC50 (as a rule, the midpoint of a concentration-inhibition curve) is no less than 40 µM.

Source of the values: patent US20260224555A1, “NEW PHENYLQUINOLONE COMPOUND HAVING ANTIBACTERIAL AND ANTI-CANCER FUNCTIONS AND PREPARATION THEREOF” (AlphaMol Science Ltd (Shanghai), priority 2022, published 2026).
